Experimental data from PubChem BioAssay (NCI).
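Cells were grown in 96-well plates and exposed to each compound for 48 hours at five concentrations; endpoints were interpolated linearly between bracketing concentrations, or set to the highest concentration if not reached. The concentration for full growth arrest is given as TGI.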

Legend:
Test in all cases: growth of human tumour cells (NCI), 48 h
IGROV1 ovarian = test system: IGROV1 ovarian
CAKI-1 renal = test system: CAKI-1 renal
OVCAR-4 ovarian = test system: OVCAR-4 ovarian
A549 NSCLC = test system: A549 NSCLC
M14 melanoma = test system: M14 melanoma
PC-3 prostate = test system: PC-3 prostate
NCI-H460 lung = test system: NCI-H460 lung
MDA-MB-435 = test system: MDA-MB-435
SK-MEL-2 melanoma = test system: SK-MEL-2 melanoma
HCT-116 colon = test system: HCT-116 colon
OVCAR-5 ovarian = test system: OVCAR-5 ovarian
SR leukemia = test system: SR leukemia
SF-268 CNS = test system: SF-268 CNS
SN12C renal = test system: SN12C renal
DU-145 prostate = test system: DU-145 prostate
T-47D breast = test system: T-47D breast
OVCAR-8 ovarian = test system: OVCAR-8 ovarian
SNB-75 CNS = test system: SNB-75 CNS
786-0 renal = test system: 786-0 renal
NCI-H226 lung = test system: NCI-H226 lung
UACC-257 melanoma = test system: UACC-257 melanoma
A498 renal = test system: A498 renal
HS 578T breast = test system: HS 578T breast
KM12 colon = test system: KM12 colon
SF-295 CNS = test system: SF-295 CNS
RPMI-8226 leukemia = test system: RPMI-8226 leukemia
NCI-H522 lung = test system: NCI-H522 lung
TK-10 renal = test system: TK-10 renal
HOP-92 NSCLC = test system: HOP-92 NSCLC
SK-OV-3 ovarian = test system: SK-OV-3 ovarian
MCF7 breast = test system: MCF7 breast
MALME-3M melanoma = test system: MALME-3M melanoma
HOP-62 NSCLC = test system: HOP-62 NSCLC
UACC-62 melanoma = test system: UACC-62 melanoma
CCRF-CEM leukemia = test system: CCRF-CEM leukemia
OVCAR-3 ovarian = test system: OVCAR-3 ovarian
K-562 leukemia = test system: K-562 leukemia
ACHN renal = test system: ACHN renal
SNB-19 CNS = test system: SNB-19 CNS
HCT-15 colon = test system: HCT-15 colon
RXF 393 renal = test system: RXF 393 renal
HT29 colon = test system: HT29 colon
BT-549 breast = test system: BT-549 breast
HL-60(TB) leukemia = test system: HL-60(TB) leukemia
MDA-MB-231 breast = test system: MDA-MB-231 breast
LOX IMVI melanoma = test system: LOX IMVI melanoma
SW-620 colon = test system: SW-620 colon
UO-31 renal = test system: UO-31 renal
NCI/ADR-RES ovarian = test system: NCI/ADR-RES ovarian
SF-539 CNS = test system: SF-539 CNS
NCI-H23 lung = test system: NCI-H23 lung
U251 CNS = test system: U251 CNS
MOLT-4 leukemia = test system: MOLT-4 leukemia
EKVX NSCLC = test system: EKVX NSCLC
SK-MEL-28 melanoma = test system: SK-MEL-28 melanoma
SK-MEL-5 melanoma = test system: SK-MEL-5 melanoma
COLO 205 colon = test system: COLO 205 colon
HCC-2998 colon = test system: HCC-2998 colon

With NS(=O)(=O)c1nn2c(Br)c(-c3ccccc3)nc2s1 the TGI (IGROV1 ovarian) was 23.3 µM, the TGI (CAKI-1 renal) was 9.72 µM and the TGI (OVCAR-4 ovarian) was 24.4 µM. The TGI (A549 NSCLC) was 21.6 µM, the TGI (M14 melanoma) was 13.8 µM and the TGI (PC-3 prostate) was 18.5 µM. The TGI (NCI-H460 lung) was 19.3 µM, the TGI (MDA-MB-435) was 16.3 µM and the TGI (SK-MEL-2 melanoma) was 16.9 µM. The TGI (HCT-116 colon) was 7.3 µM, the TGI (OVCAR-5 ovarian) was 24.3 µM and the TGI (SR leukemia) was greater than 33.8 µM. For the same compound, the TGI (SF-268 CNS) was 30.9 µM, the TGI (SN12C renal) was 7.94 µM and the TGI (DU-145 prostate) was 8.5 µM. The TGI (T-47D breast) was 12.2 µM, the TGI (OVCAR-8 ovarian) was 7.89 µM and the TGI (SNB-75 CNS) was 19.5 µM. For the same compound, the TGI (786-0 renal) was 9.34 µM, the TGI (NCI-H226 lung) was 4.6 µM and the TGI (UACC-257 melanoma) was 15.5 µM. For the same compound, the TGI (A498 renal) was 31 µM, the TGI (HS 578T breast) was 30.7 µM and the TGI (KM12 colon) was 21.3 µM. For the same compound, the TGI (SF-295 CNS) was 22.6 µM, the TGI (RPMI-8226 leukemia) was 15.5 µM and the TGI (NCI-H522 lung) was 3.55 µM. It also gave a TGI (TK-10 renal) of 17.7 µM, a TGI (HOP-92 NSCLC) of 22.4 µM and a TGI (SK-OV-3 ovarian) of 28.4 µM. It also gave a TGI (MCF7 breast) of 16 µM, a TGI (MALME-3M melanoma) of 13.7 µM and a TGI (HOP-62 NSCLC) of 29.5 µM. It also gave a TGI (UACC-62 melanoma) of 15.4 µM, a TGI (CCRF-CEM leukemia) of 11 µM and a TGI (OVCAR-3 ovarian) of 15.9 µM. It also gave a TGI (K-562 leukemia) of 21.2 µM, a TGI (ACHN renal) of 15.2 µM and a TGI (SNB-19 CNS) of 22.8 µM. For the same compound, the TGI (HCT-15 colon) was 11.6 µM, the TGI (RXF 393 renal) was 9.48 µM and the TGI (HT29 colon) was 8.4 µM. It also gave a TGI (BT-549 breast) of 7.69 µM, a TGI (HL-60(TB) leukemia) of 36.4 µM and a TGI (MDA-MB-231 breast) of 15.9 µM. For the same compound, the TGI (LOX IMVI melanoma) was 4.49 µM, the TGI (SW-620 colon) was 12.4 µM and the TGI (UO-31 renal) was 15.5 µM. For the same compound, the TGI (NCI/ADR-RES ovarian) was 12.6 µM, the TGI (SF-539 CNS) was 3.95 µM and the TGI (NCI-H23 lung) was 11.1 µM. For the same compound, the TGI (U251 CNS) was 15.6 µM, the TGI (MOLT-4 leukemia) was 5.67 µM and the TGI (EKVX NSCLC) was 31.9 µM. The TGI (SK-MEL-28 melanoma) was 23.1 µM, the TGI (SK-MEL-5 melanoma) was 6.48 µM and the TGI (COLO 205 colon) was 18.4 µM. It also gave a TGI (HCC-2998 colon) of 16.7 µM.
